Values quoted from earlier work in PubChem BioAssay AID1259409 (Chemical Carcinogenesis Research Information System (CCRIS), 2018).

System: rodent chemically induced tumor inhibition, incidence and multiplicity
Experiment: CCRIS tumor inhibitor studies
Conditions: Route [Inhibitor]: ORAL, Species: RAT, Promoter: NONE USED
Description: The CCRIS database contains chemical records with carcinogenicity, mutagenicity, tumor promotion, and tumor inhibition test results. It was developed by the National Cancer Institute (NCI). Data are derived from studies cited in primary journals, current awareness tools, NCI reports, and other sources. Test results have been reviewed by experts in carcinogenesis and mutagenesis.
CCRIS provides historical information from the years 1985 - 2011. It is no longer updated.
This is an archive assay for CCRIS tumor inhibitor studies.

## CC1=C(/C=C/C(C)=C/C=C/C(C)=C/C(=O)NCCO)C(C)(C)CCC1
Carcinogen: L-AZASERINE, 115-02-6, Dose [Inhibitor]: 2 MMOL/KG DIET DAILY FOR 336 D OUT OF 358 D STARTING 1 WK AFTER COMPLETION OF CARCINOGEN TREATMENT (STUDY DURATION: 66 W, Strain/Sex: WISTAR-LEWIS/FEMALE, Target Tissue: Type of Lesion: PANCREAS: ADENOMA, Dose [Carcinogen]: 10 MG/KG BW 1/WK FOR 15 WK
  tumour outcome (control, treated, inhibition, significance): 50%, 13%, 74%, not significant
Carcinogen: L-AZASERINE, 115-02-6, Dose [Inhibitor]: 2 MMOL/KG DIET DAILY FOR 336 D OUT OF 358 D STARTING 1 WK AFTER COMPLETION OF CARCINOGEN TREATMENT (STUDY DURATION: 66 W, Strain/Sex: WISTAR-LEWIS/FEMALE, Target Tissue: Type of Lesion: PANCREAS: CARCINOMA IN SITU, Dose [Carcinogen]: 10 MG/KG BW 1/WK FOR 15 WK
  tumour outcome (control, treated, inhibition, significance): 8%, 13%, -63%, not significant
Carcinogen: L-AZASERINE, 115-02-6, Dose [Inhibitor]: 2 MMOL/KG DIET DAILY FOR 336 D OUT OF 358 D STARTING 1 WK AFTER COMPLETION OF CARCINOGEN TREATMENT (STUDY DURATION: 66 W, Strain/Sex: WISTAR-LEWIS/FEMALE, Target Tissue: Type of Lesion: PANCREAS: CARCINOMA, Dose [Carcinogen]: 10 MG/KG BW 1/WK FOR 15 WK STARTING 15 WK PRIOR TO AGENT TREATMENT
  tumour outcome (control, treated, inhibition, significance): ?/24 (13%), ?/24 (0%), 100%, not significant
Carcinogen: L-AZASERINE, 115-02-6, Dose [Inhibitor]: 2 MMOL/KG DIET DAILY FOR 336 D OUT OF 358 D STARTING 1 WK AFTER COMPLETION OF CARCINOGEN TREATMENT (STUDY DURATION: 66 W, Strain/Sex: WISTAR-LEWIS/MALE, Target Tissue: Type of Lesion: PANCREAS: ADENOMA, Dose [Carcinogen]: 10 MG/KG BW 1/WK FOR 15 WK
  tumour outcome (control, treated, inhibition, significance): 25%, 28%, -12%, not significant
Carcinogen: L-AZASERINE, 115-02-6, Dose [Inhibitor]: 2 MMOL/KG DIET DAILY FOR 336 D OUT OF 358 D STARTING 1 WK AFTER COMPLETION OF CARCINOGEN TREATMENT (STUDY DURATION: 66 W, Strain/Sex: WISTAR-LEWIS/MALE, Target Tissue: Type of Lesion: PANCREAS: CARCINOMA IN SITU, Dose [Carcinogen]: 10 MG/KG BW 1/WK FOR 15 WK
  tumour outcome (control, treated, inhibition, significance): 29%, 44%, -52%, not significant
Carcinogen: L-AZASERINE, 115-02-6, Dose [Inhibitor]: 2 MMOL/KG DIET DAILY FOR 336 D OUT OF 358 D STARTING 1 WK AFTER COMPLETION OF CARCINOGEN TREATMENT (STUDY DURATION: 66 W, Strain/Sex: WISTAR-LEWIS/MALE, Target Tissue: Type of Lesion: PANCREAS: CARCINOMA, Dose [Carcinogen]: 10 MG/KG BW 1/WK FOR 15 WK
  tumour outcome (control, treated, inhibition, significance): 46%, 4%, 91%, p<0.05
Carcinogen: L-AZASERINE, 115-02-6, Dose [Inhibitor]: 2 MMOL/KG DIET DAILY FOR 336 D OUT OF 358 D STARTING 1 WK AFTER COMPLETION OF CARCINOGEN TREATMENT (STUDY DURATION: 66 W, Strain/Sex: WISTAR-LEWIS/MALE, Target Tissue: Type of Lesion: PANCREAS: NEOPLASM, Dose [Carcinogen]: 10 MG/KG BW 1/WK FOR 15 WK
  tumour outcome (control, treated, inhibition, significance): 100%, 76%, 24%, not significant
Carcinogen: N-(4-(5-NITRO-2-FURYL)-2-THIAZOLYL)FORMAMIDE, 24554-26-5, Dose [Inhibitor]: 343 MG/KG DIET DAILY FOR 39 WK STARTING ONE WK FOLLOWING THE TERMINATION OF CARCINOGEN ADMINISTRATION (STUDY DURATION: 5, Strain/Sex: F344/FEMALE, Target Tissue: Type of Lesion: URINARY BLADDER: CARCINOMA, Dose [Carcinogen]: 2 G/KG IN DIET DAILY FOR 10 WK
  tumour outcome (control, treated, inhibition, significance): 105/200 (53%), 67/100 (67%), -26%, p 0.0167
Carcinogen: N-(4-(5-NITRO-2-FURYL)-2-THIAZOLYL)FORMAMIDE, 24554-26-5, Dose [Inhibitor]: 343 MG/KG/D IN DIET FOR 39 WK STARTING 1 WK POST CARCINOGEN TREATMENT (STUDY DURATION: 50 WK), Strain/Sex: F344/FEMALE, Target Tissue: Type of Lesion: URINARY BLADDER: CARCINOMA, Dose [Carcinogen]: 2 G/KG/D IN DIET FOR 10 WK
  tumour outcome (control, treated, inhibition, significance): 105/200 (53%), 67/100 (67%), -26%, p 0.0167
Carcinogen: N-(4-(5-NITRO-2-FURYL)-2-THIAZOLYL)FORMAMIDE, 24554-26-5, Dose [Inhibitor]: 343 MG/KG/D IN DIET FOR 39 WK STARTING 1 WK POST CARCINOGEN TREATMENT (STUDY DURATION: 50 WK), Strain/Sex: F344/FEMALE, Target Tissue: Type of Lesion: URINARY BLADDER: PAPILLOMA, Dose [Carcinogen]: 2 G/KG/D IN DIET FOR 10 WK
  tumour outcome (control, treated, inhibition, significance): 15/200 (7.5%), 24/100 (24%), -220%, p 0.00006
Carcinogen: N-(4-(5-NITRO-2-FURYL)-2-THIAZOLYL)FORMAMIDE, 24554-26-5, Dose [Inhibitor]: 686 MG/KG DIET DAILY FOR 39 WK STARTING ONE WK FOLLOWING THE TERMINATION OF CARCINOGEN ADMINISTRATION (STUDY DURATION: 5, Strain/Sex: F344/FEMALE, Target Tissue: Type of Lesion: URINARY BLADDER: CARCINOMA, Dose [Carcinogen]: 2 G/KG IN DIET DAILY FOR 10 WK
  tumour outcome (control, treated, inhibition, significance): 105/200 (53%), 49/100 (49%), 8%, p 0.5657
Carcinogen: N-(4-(5-NITRO-2-FURYL)-2-THIAZOLYL)FORMAMIDE, 24554-26-5, Dose [Inhibitor]: 686 MG/KG DIET DAILY FOR 39 WK STARTING ONE WK FOLLOWING THE TERMINATION OF CARCINOGEN ADMINISTRATION (STUDY DURATION: 5, Strain/Sex: F344/FEMALE, Target Tissue: Type of Lesion: URINARY BLADDER: PAPILLOMA, Dose [Carcinogen]: 2 G/KG IN DIET DAILY FOR 10 WK
  tumour outcome (control, treated, inhibition, significance): 15/200 (8%), 17/100 (17%), -113%, p 0.012
